Measurements from patent US10793563B2, “GCN2 inhibitors and uses thereof” (Merck Patent GmbH, priority 2018, dated 2020).
Like-named read-outs stand apart in the source and are kept apart here.

Key:
[1] = molecular target: intracellular GCN2 (phosphorylation of the GCN2 substrate eIF2α) (Homo sapiens (Human), UniProt Q9P2K8); experiment: GCN2 Cellular Inhibition Assay (AlphaScreen SureFire P-eIF2α Ser51, borrelidin-treated U2OS cells); assay type: cell-based; settings: 10 μM borrelidin, 1 h, phosphorylated eIF2α Ser51, read-out: GCN2 Biomarker (IC50)
intracellular GCN2 (phosphorylation of the GCN2 substrate eIF2α), sequence (Q9P2K8 whole entry): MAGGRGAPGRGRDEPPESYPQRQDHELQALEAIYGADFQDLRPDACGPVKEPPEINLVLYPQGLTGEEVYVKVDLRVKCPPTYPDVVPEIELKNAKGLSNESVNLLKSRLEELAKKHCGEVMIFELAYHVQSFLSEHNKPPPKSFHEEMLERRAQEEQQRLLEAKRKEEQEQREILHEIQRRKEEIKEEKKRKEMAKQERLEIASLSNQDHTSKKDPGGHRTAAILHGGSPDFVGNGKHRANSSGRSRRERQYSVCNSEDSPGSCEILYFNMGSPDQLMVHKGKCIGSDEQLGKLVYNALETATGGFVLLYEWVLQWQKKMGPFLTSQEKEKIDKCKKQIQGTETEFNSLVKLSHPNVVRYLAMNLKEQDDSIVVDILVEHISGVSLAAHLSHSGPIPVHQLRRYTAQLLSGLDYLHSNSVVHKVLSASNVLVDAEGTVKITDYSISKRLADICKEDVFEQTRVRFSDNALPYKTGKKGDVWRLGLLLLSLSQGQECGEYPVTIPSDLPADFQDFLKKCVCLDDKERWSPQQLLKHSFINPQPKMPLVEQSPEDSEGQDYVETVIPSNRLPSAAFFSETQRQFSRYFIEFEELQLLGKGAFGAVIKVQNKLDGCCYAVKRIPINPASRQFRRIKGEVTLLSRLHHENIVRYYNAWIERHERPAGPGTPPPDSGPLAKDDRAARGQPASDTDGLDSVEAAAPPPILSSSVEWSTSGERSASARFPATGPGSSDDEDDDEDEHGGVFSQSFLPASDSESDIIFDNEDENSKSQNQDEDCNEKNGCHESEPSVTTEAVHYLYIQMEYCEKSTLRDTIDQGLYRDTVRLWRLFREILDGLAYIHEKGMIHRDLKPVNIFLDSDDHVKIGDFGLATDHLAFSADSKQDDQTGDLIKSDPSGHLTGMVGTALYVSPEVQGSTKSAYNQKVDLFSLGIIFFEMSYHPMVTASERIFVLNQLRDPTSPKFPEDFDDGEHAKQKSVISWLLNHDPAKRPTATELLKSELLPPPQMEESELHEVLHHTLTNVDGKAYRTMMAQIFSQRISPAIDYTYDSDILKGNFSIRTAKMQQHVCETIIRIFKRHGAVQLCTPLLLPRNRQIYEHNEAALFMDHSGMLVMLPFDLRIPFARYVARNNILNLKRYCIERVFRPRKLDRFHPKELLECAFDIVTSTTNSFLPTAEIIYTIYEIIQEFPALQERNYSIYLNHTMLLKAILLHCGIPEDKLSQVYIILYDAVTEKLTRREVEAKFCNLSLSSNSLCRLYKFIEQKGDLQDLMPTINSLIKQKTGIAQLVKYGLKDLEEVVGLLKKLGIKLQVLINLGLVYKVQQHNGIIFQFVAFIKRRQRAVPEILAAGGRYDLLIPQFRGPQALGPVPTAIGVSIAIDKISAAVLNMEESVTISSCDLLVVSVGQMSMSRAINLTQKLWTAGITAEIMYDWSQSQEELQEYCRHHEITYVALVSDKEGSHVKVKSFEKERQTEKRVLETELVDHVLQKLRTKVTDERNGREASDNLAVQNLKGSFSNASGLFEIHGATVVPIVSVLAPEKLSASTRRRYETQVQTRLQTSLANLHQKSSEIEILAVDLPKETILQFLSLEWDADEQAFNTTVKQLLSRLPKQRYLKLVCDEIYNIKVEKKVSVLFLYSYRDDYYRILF
Method in brief: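 U2OS cells adhered overnight, then given compound (top 40 μM, 4-fold serial dilutions) plus 10 μM borrelidin for 1 h at 37 °C. Lysates assayed for eIF2α phospho-Ser51 by AlphaScreen SureFire; % inhibition versus borrelidin-only wells.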

[2] = system: primary human pan T-cells; experiment: Human IL-2 Assay for GCN2 Inhibition (IL-2 secretion from T cells in low amino acid condition); assay type: cell-based; settings: IL-2 secretion from human T cells stimulated with anti-CD3/CD28 in low amino acid condition, ELISA; for EC50: read-out: IL2/T-cell EC50
Description: Tumor microenvironment is profoundly immuno-suppressive. This may be attributed to the depletion of amino acids (like arginine and tryptophan) which triggers the activation of GCN2 in immune cells, including T cell and myeloid cells. In T cells, activation of GCN2 leads to reduce effector functions of CD8 T cells and induction and/or maintenance of immuno-suppressive T-regs. Inhibition of that immuno-suppressive response by GCN2 inhibitors enables an anti-cancer immune response by activating effector T-cells. Herein we describe an in-vitro system we established using human T-cells stimulated in low amino acid condition in order to engage the GCN2 biology. The method described involves the modulation of IL-2 levels secreted by human T cells in responses to the GCN2 inhibitors disclosed herein.
Amino acid-free RPMI was reconstituted with all but one of the amino acids found in standard RMPI (e.g. Arginine, Tryptophan), 10% charcoal-stripped fetal bovine serum, 100 Units/mL penicillin and 0.1 mg/mL streptomycin. Primary human pan T-cells were isolated using Pan T Cell Isolation Kit, human (MACS Miltenyi biotech Cat # Order no. 130-096-535) from apheresis cones and 5×104 pan T-cells per well. The purified T cells are seeded in Nunc™ 96-Well Polystyrene Round Bottom Microwell Plates (the cells are rested in No TRP media in a 15 ml falcon tube in the incubator for 30-45 minutes while titrations for tryptophan and the GCN2 inhibitor compound are made) A plate matrix was developed to titrate both a GCN2 inhibitor and the amino acid of interest ranging from “No Amino Acid” condition, up to the concentration found in the regular RPMI media (20 μM for TRP and 950 μM for Arginine). The cells were incubated for 30 min at 37° C. with the GCN2 inhibitor and then stimulated with 5×104 anti-CD3/CD28 Dynabeads® per well. After 96 hours of incubation the IL-2 level in the supernatant were measured using ELISA (R&D systems Cat # DY202 (Human IL-2 DuoSet ELISA). Data were plotted in GraphPad Prism software and EC50 is calculated.

GCN2 kinase = GCN2 kinase (Homo sapiens (Human), UniProt Q9P2K8); experiment: GCN2 Enzyme Inhibition Assay (Transcreener ADP2 fluorescence polarization); assay type: biochemical; settings: 280 μM ATP, 200 μM (RS)7 peptide, 4 nM GCN2, 25° C.; for Ki: Ki(app)
GCN2 kinase, sequence (Q9P2K8 whole entry): as above
Method in brief: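 Transcreener ADP2 fluorescence polarization detection of ADP from 4 nM GCN2 with (RS)7 substrate in 25 mM Tris-HCl pH 7.5, 50 mM NaCl, 10 mM MgCl2, 1 mM DTT. Compound pre-incubated with enzyme 10 min at 25 °C; reaction started by ATP, run 1 h at 25 °C. IC50 and Ki(app) by tight-binding fit.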

IC50 [1] [nM]	EC50 ([2]; Homo sapiens, T-cell, 96 h) [nM]	Ki (GCN2 kinase) [nM]	EC50 ([2]; 96 hours) [nM]	IC50 (GCN2 kinase) [nM]	IL2/T-cell EC50 ([2]; 96 hours)	Structure (SMILES)
< 500	100 to 500	< 10	–	–	–	NC(=O)[C@H]1CCCN(c2ccnc(-c3cnc4ccc(Cl)cn34)n2)C1 [I-102, (S)-1-(2-(6-chloroimidazo[1,2-a]pyridin-3-yl)pyrimidin-4-yl)piperidine-3-carboxamide]
< 500	100 to 500	–	< 100	< 10	–	Cc1[nH]ncc1[C@@H]1CN(c2ccnc(-c3cnc4ccc(C(F)(F)F)cn34)n2)C[C@H](C)O1 [I-124, 3-{4-[(2S,6R)-2-Methyl-6-(3-methyl-1H-pyrazol-4-yl)-morpholin-4-yl]-pyrimidin-2-yl}-6-trifluoromethyl-imidazo[1,2-a]pyridine]
< 500	100 to 500	–	–	< 10	–	C[C@H]1CN(c2nccc(-c3cnc4ccc(C(F)(F)F)cn34)n2)C[C@@H](c2cn[nH]c2)O1 [I-126, (2S,6R)-2-methyl-6-(1H-pyrazol-4-yl)-4-{4-[6-(trifluoromethyl)imidazo[1,2-a]pyridin-3-yl]pyrimidin-2-yl}morpholine]
< 500	< 100	–	–	< 10	–	C[C@@H]1CN(c2nccc(-c3cnc4ccc(C(F)(F)F)cn34)n2)C[C@H](c2cn[nH]c2)O1 [I-127, 3-{2-[(2R,6S)-2-Methyl-6-(1H-pyrazol-4-yl)-morpholin-4-yl]-pyrimidin-4-yl}-6-trifluoromethyl-imidazo[1,2-a]pyridine]
< 500	> 500	–	–	10 to 100	–	C[C@H]1CN(c2nccc(-c3cnc4ccc(C(F)(F)F)cn34)n2)C[C@H](c2cn[nH]c2)O1 [I-134, (2S,6S)-2-methyl-6-(1H-pyrazol-4-yl)-4-(4-(6-(trifluoromethyl)imidazo[1,2-a]pyridin-3-yl)pyrimidin-2-yl)morpholine]
< 500	100 to 500	–	–	< 10	–	C[C@@H]1CN(c2nccc(-c3cnc4ccc(C(F)(F)F)cn34)n2)C[C@@H](c2cn[nH]c2)O1 [I-135, (2R,6R)-2-methyl-6-(1H-pyrazol-4-yl)-4-(4-(6-(trifluoromethyl)imidazo[1,2-a]pyridin-3-yl)pyrimidin-2-yl)morpholine]
< 500	100 to 500	–	–	< 10	–	C[C@H]1C[C@@H](C(N)=O)CN(c2ccnc(-c3cnc4ccc(C(F)(F)F)cn34)n2)C1 [I-148, (3R,5S)-5-methyl-1-(2-(6-(trifluoromethyl)imidazo[1,2-a]pyridin-3-yl)pyrimidin-4-yl)piperidine-3-carboxamide]
< 500	< 100	< 10	–	< 10	–	NC(=O)[C@H]1CCCN(c2ccnc(-c3cnc4ccc(C(F)(F)F)cn34)n2)C1 [I-154, (S)-1-[2-(6-Trifluoromethyl-imidazo[1,2-a]pyridin-3-yl)-pyrimidin-4-yl]-piperidine-3-carboxylic acid amide]
< 500	100 to 500	–	–	10 to 100	–	C[C@H]1CN(c2nccc(-c3cnc4ccc(C(F)(F)F)cn34)n2)[C@@H](C)C(c2cn[nH]c2)N1 (stereo partly drawn) [I-170, 3-(2-((2S,5S)-2,5-dimethyl-3-(1H-pyrazol-4-yl)piperazin-1-yl)pyrimidin-4-yl)-6-(trifluoromethyl)imidazo[1,2-a]pyridine]
< 500	< 100	–	–	< 10	–	C[C@H]1CN(c2ccnc(-c3cnc4ccc(Cl)cn34)n2)C[C@@H](c2cn[nH]c2F)O1 [I-176, (2R,6S)-4-(2-(6-chloroimidazo[1,2-a]pyridin-3-yl)pyrimidin-4-yl)-2-(5-fluoro-1H-pyrazol-4-yl)-6-methylmorpholine]
< 500	100 to 500	–	–	< 10	–	Cc1[nH]ncc1[C@@H]1CN(c2nccc(-c3cnc4ccc(Cl)cn34)n2)C[C@H](C)O1 [I-179, (2S,6R)-4-(4-(6-chloroimidazo[1,2-a]pyridin-3-yl)pyrimidin-2-yl)-2-methyl-6-(5-methyl-1H-pyrazol-4-yl)morpholine]
< 500	–	–	–	10 to 100	− (“−” for not active)	Cc1cnc(N2C[C@H](C)C[C@H](c3cn[nH]c3)C2)nc1-c1cnc2ccc(Cl)cn12 [I-185, 6-chloro-3-(5-methyl-2-((3R,5R)-3-methyl-5-(1H-pyrazol-4-yl)piperidin-1-yl)pyrimidin-4-yl)imidazo[1,2-a]pyridine]
< 500	–	–	–	10 to 100	− (“−” for not active)	C[C@@H]1C[C@H](N=S(C)(C)=O)CN(c2ccnc(-c3cnc4cc(F)c(Cl)cn34)n2)C1 [I-191, (((3 S, 5R)-1-(2-(6-chloro-7-fluoroimidazo[1,2-a]pyridin-3-yl)pyrimidin-4-yl)-5-methylpiperidin-3-yl)imino)dimethyl-λ6-sulfanone]
< 500	100 to 500	–	–	< 10	–	CC1CCC(C(N)=O)CN1c1ccnc(-c2cnc3ccc(C(F)(F)F)cn23)n1 (centres unmarked) [I-200, 6-methyl-1-(2-(6-(trifluoromethyl)imidazo[1,2-a]pyridin-3-yl)pyrimidin-4-yl)piperidine-3-carboxamide]
< 500	100 to 500	–	–	10 to 100	–	Cc1cc(-c2cnc3ccc(Cl)cn23)nc(N2C[C@H](C)C[C@H](c3cn[nH]c3)C2)n1 [I-209, 6-chloro-3-(6-methyl-2-((3R,5R)-3-methyl-5-(1H-pyrazol-4-yl)piperidin-1-yl)pyrimidin-4-yl)imidazo[1,2-a]pyridine]
< 500	100 to 500	–	–	< 10	–	NC(=O)[C@@H]1CCCN(c2ncc(F)c(-c3cnc4ccc(C(F)(F)F)cn34)n2)C1 [I-223, (R)-1-(5-fluoro-4-(6-(trifluoromethyl)imidazo[1,2-a]pyridin-3-yl)pyrimidin-2-yl)piperidine-3-carboxamide]
< 500	< 100	–	–	< 10	–	C[C@H]1CN(c2nccc(-c3cnc4ccc(Cl)cn34)n2)C[C@@H](c2cn[nH]c2)O1 [I-247, 6-Chloro-3-{2-[(2S,6R)-2-methyl-6-(1H-pyrazol-4-yl)-morpholin-4-yl]-pyrimidin-4-yl}-imidazo[1,2-a]pyridine]
< 500	100 to 500	–	–	< 10	–	C[C@@H]1CN(c2nccc(-c3cnc4ccc(Cl)cn34)n2)C[C@H](c2cn[nH]c2)O1 [I-248, 6-Chloro-3-{2-[(2R,6S)-2-methyl-6-(1H-pyrazol-4-yl)-morpholin-4-yl]-pyrimidin-4-yl}-imidazo[1,2-a]pyridine]
< 500	100 to 500	–	–	< 10	–	C[C@@H]1C[C@H](c2cn[nH]c2)CN(c2nccc(-c3cnc4ccc(C5CC5)cn34)n2)C1 [I-249, 6-Cyclopropyl-3-{2-[(3R,5R)-3-methyl-5-(1H-pyrazol-4-yl)-piperidin-1-yl]-pyrimidin-4-yl}-imidazo[1,2-a]pyridine]
< 500	–	–	–	10 to 100	− (“−” for not active)	C[C@H]1C[C@@H](c2cn[nH]c2)CN(c2nccc(-c3cnc4ccc(C5CC5)cn34)n2)C1 [I-250, 6-Cyclopropyl-3-{2-[(3 S,5S)-3-methyl-5-(1H-pyrazol-4-yl)-piperidin-1-yl]-pyrimidin-4-yl}-imidazo[1,2-a]pyridine]
< 500	< 100	–	–	< 10	–	C[C@@H]1CN(c2ccnc(-c3cnc4ccc(OC(F)(F)F)cn34)n2)C[C@H](c2cn[nH]c2)O1 [I-293, (2R,6 S)-2-methyl-6-(1H-pyrazol-4-yl)-4-(2-(6-(trifluoromethoxy)imidazo[1,2-a]pyridin-3-yl)pyrimidin-4-yl)morpholine]
